For assay [1], the target named is T1, NLRP3 (Homo sapiens, UniProt Q96P20). Description: Human whole blood IL-1β release assay. Format: cell-based. Further details: Human whole blood in Li-heparin tubes was obtained from healthy donors; from tissue; host or cells: human whole blood from healthy volunteer donors, LPS-primed, nigericin-stimulated. The conditions noted are these: 1 μg/ml LPS, compound 3 hrs, nigericin 10 μM 1 hr, IL-1β in supernatant (AlphaLisa), read-out: HWB IC50. The protocol:
For systemic delivery, the ability to inhibit NLRP3 when the compounds are present within the bloodstream is of great importance. For this reason, the NLRP3 inhibitory activity of a number of compounds in human whole blood was investigated in accordance with the following protocol.
Human whole blood in Li-heparin tubes was obtained from healthy donors from a volunteer donor panel. • 1. Plate out 80 μl of whole blood containing 1 μg/ml of LPS in 96-well, clear bottom cell culture plate (Corning #3585) • 2. Add 10 μl compound (8 points half-log dilution with 10 μM top dose) or vehicle (DMSO 0.1% FAC) to the appropriate wells • 3. Incubate for 3 hrs at 37° C., 5% CO2 • 4. Add 10 μl nigericin (Sigma #N7143) (10 μM FAC) to all wells • 5. Incubate for 1 hr at 37° C., 5% CO2 • 6. At the end of the incubation period, spin plates at 300×g for 5 mins to pellet cells and remove 20 μl of supernatant and add to 96-well v-bottom plates for IL-1β analysis (note: these plates containing the supernatants can be stored at −80° C. to be analysed at a later date) • 7. IL-1β was measured according to the manufacturer protocol (Perkin Elmer-AlphaLisa IL-1 Kit AL220F-5000) • 8. IC50 data is fitted to a non-linear regression equation (log inhibitor vs response-variable slope 4-parameters)
For orientation: Bead proximity is the source of the signal in Alpha formats.

The target of assay [2] is T1, NLRP3. Briefly: THP-1 cells pyroptosis assay. Format: cell-based. Further details: Seed THP-1 cells (25,000 cells/well) containing 1.0 μg/ml LPS; host or cells: THP-1 cells, LPS-primed, nigericin-stimulated. The conditions noted are these: 1.0 μg/ml LPS, compound 3 hrs, nigericin 5 μM 1 hr, resazurin readout. The protocol:
THP-1 cells (ATCC #TIB-202) were grown in RPMI containing L-glutamine (Gibco #11835) supplemented with 1 mM sodium pyruvate (Sigma #S8636) and penicillin (100 units/ml)/streptomycin (0.1 mg/ml) (Sigma #P4333) in 10% Fetal Bovine Serum (FBS) (Sigma #F0804). The cells were routinely passaged and grown to confluency (˜10^6 cells/ml). On the day of the experiment, THP-1 cells were harvested and resuspended into RPMI medium (without FBS). The cells were then counted and viability (>90%) checked by Trypan blue (Sigma #T8154). Appropriate dilutions were made to give a concentration of 625,000 cells/ml. To this diluted cell solution was added LPS (Sigma #L4524) to give a […] Final Assay Concentration (FAC). 40 μl of the final preparation was aliquoted into each well of a 96-well plate. The plate thus prepared was used for compound screening.
The following method step-by-step assay was followed for compound screening. • 1. Seed THP-1 cells (25,000 cells/well) containing 1.0 μg/ml LPS in 40 μl of RPMI medium (without FBS) in 96-well, black walled, clear bottom cell culture plates coated with poly-D-lysine (VWR #734-0317) • 2. Add 5 μl compound (8 points half-log dilution, with 10 μM top dose) or vehicle (DMSO 0.1% FAC) to the appropriate wells • 3. Incubate for 3 hrs at 37° C., 5% CO2 • 4. Add 5 μl nigericin (Sigma #N7143) (FAC 5 μM) to all wells • 5. Incubate for 1 hr at 37° C., 5% CO2 • 6. At the end of the incubation period, spin plates at 300×g for 3 mins and remove supernatant • 7. Then add 50 μl of resazurin (Sigma #R7017) (FAC 100 μM resazurin in RPMI medium without FBS) and incubate plates for a further 1-2 hrs at 37° C. and 5% CO2 • 8. Plates were read in an Envision reader at Ex 560 nm and Em 590 nm • 9. IC50 data is fitted to a non-linear regression equation (log inhibitor vs response-variable slope 4-parameters) 96-well Plate Map
In general terms: Alamar Blue is a resazurin reagent that responds to reducing activity.

In patent US20230121952A1 (INFLAZOME LIMITED, priority 2020, published 2023) one finds IC50 data, which are given here for seven molecules.

T1 sequence (Q96P20 whole entry): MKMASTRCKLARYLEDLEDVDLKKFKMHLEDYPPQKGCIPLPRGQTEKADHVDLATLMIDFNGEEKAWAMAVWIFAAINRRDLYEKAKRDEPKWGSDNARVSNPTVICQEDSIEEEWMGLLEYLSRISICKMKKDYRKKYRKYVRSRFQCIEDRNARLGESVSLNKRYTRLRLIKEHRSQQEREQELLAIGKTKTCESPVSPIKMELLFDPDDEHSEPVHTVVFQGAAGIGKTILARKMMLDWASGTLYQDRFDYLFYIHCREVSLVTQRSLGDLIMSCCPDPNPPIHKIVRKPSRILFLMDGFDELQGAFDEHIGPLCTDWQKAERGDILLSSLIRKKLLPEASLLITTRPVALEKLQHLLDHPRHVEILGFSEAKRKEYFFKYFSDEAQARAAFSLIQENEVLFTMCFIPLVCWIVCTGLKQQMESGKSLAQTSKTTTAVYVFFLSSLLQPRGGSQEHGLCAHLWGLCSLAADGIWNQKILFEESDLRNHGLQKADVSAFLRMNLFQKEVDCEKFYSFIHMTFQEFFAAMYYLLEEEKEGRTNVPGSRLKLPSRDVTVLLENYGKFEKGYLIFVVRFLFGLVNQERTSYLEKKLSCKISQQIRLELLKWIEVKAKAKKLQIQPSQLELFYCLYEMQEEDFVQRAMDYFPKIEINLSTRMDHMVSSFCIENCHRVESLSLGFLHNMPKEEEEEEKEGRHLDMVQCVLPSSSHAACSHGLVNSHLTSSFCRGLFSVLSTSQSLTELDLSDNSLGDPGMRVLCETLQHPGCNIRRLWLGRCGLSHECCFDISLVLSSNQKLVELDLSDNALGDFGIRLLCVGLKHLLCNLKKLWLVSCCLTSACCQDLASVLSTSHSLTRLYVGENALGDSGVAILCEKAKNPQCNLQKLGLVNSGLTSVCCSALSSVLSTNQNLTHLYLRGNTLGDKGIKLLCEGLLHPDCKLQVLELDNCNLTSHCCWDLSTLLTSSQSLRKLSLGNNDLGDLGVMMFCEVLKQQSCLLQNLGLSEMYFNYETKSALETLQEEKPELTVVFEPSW

As usually defined, the IC50 is the concentration needed to halve the response being measured. With `O=S1(=O)c2nnc([nH]2)Nc2c(ccc3c2CCC3)-c2ccnc(c2)OCCCN2CCC3(C2)CN1C3` [Example 2, 26-oxa-16λ^6-thia-11,13,14,17,22,28,34-heptazaheptacyclo-[25.3.1.1^12,15.1^17,19.1^19,22.0^2,10.0^5,9]tetratriaconta-1(30),2,4,9,12,14,27(31),28-octaene 16,16-dioxide], the IC50 on NLRP3 [1] and against NLRP3 [2] was at most 100 nM in each case.
Turning to `O=S1(=O)c2nnc([nH]2)Nc2c(ccc3c2CCC3)-c2ccnc(c2)OCCN2CCC3(C2)CN1C3` [Example 3, 25-oxa-16λ^6-thia-11,13,14,17,22,27,33-heptazaheptacyclo-[24.3.1.1^12,15.1^17,19.1^19,22.0^2,10.0^5,9]tritriaconta-1(29),2,4,9,12,14,26(30),27-octaene 16,16-dioxide], the IC50 at NLRP3 [1] was at most 500 nM; against NLRP3 [2], at most 100 nM.
The corresponding values for `CN1CCOc2cc(ccn2)-c2ccc3c(c2Nc2nnc([nH]2)S(=O)(=O)N2CC(C1)C2)CCC3` [Example 11, 21-methyl-24-oxa-16λ^6-thia-11,13,14,17,21,26,31-heptaazahexacyclo-[23.3.1.1^12,15.1^17,19.0^2,10.0^5,9]hentriaconta-1(28),2,4,9,12,14,25(29),26-octaene-16,16-dioxide] are at most 500 nM and at most 100 nM.
As for `CN1CCOc2cc(ccn2)-c2ccc3c(c2Nc2nnc([nH]2)S(=O)(=O)N2CC[C@@H](C1)C2)CCC3` [Example 12, (20S)-22-methyl-25-oxa-16λ^6-thia-11,13,14,17,22,27,32-heptaazahexacyclo[24.3.1.1^12,15.1^17,20.0^2,10.0^5,9]dotriaconta-1(29),2,4,9,12,14,26(30),27-octaene-16,16-dioxide], the 50% inhibitory concentration (IC50) on NLRP3 [1] and on NLRP3 [2] was at most 500 nM throughout.
As to `O=S1(=O)c2nnc([nH]2)Nc2c(ccc3c2CCC3)-c2ccnc(c2)OCCN2CCCC23CCN1CC3` [Example 5, 8-oxa-28λ^6-thia-5,10,23,25,26,29,34-heptazaheptacyclo-[27.2.2.1^9,13.1^24,27.0^1,5.0^14,22.0^17,21]pentatriaconta-9(35),10,12,14,16,21,24,26-octaene 28,28-dioxide], the IC50 on NLRP3 [1] and on NLRP3 [2] was at most 500 nM in each case.
With `CC1(C)COc2cc(ccn2)-c2ccc3c(c2Nc2nnc([nH]2)S(=O)(=O)c2cccc1c2)CCC3` [Example 8, 22,22-dimethyl-24-oxa-16 λ^6-thia-11,13,14,26,31-pentazahexacyclo-[23.3.1.1^12,15.1^17,21.0^2,10.0^5,9] hentriaconta-1(28),2,4,9,12,14,17,19,21(30),25(29),26-undecaene 16,16-dioxide], the IC50 on NLRP3 [1] is at most 10000 nM; at NLRP3 [2], at most 5000 nM.
Regarding `CN1CCCOc2cc(ccn2)-c2ccc3c(c2Nc2nnc([nH]2)S(=O)(=O)N2CCC1CC2)CCC3` [Example 1, 26-methyl-22-oxa-2λ^6-thia-1,4,5,7,20,26,33-heptazahexacyclo-[25.2.2.1^3,6.1^17,21.0^8,16.0^9,13]tritriaconta-3,6(33),8,13,15,17,19,21(32)-octaene 2,2-dioxide], the IC50 at NLRP3 [1] and on NLRP3 [2] was at most 5000 nM each time.
